Results on 32 molecules are retold here after patent publication US8765746B2 (Millennium Pharmaceuticals, Inc., priority 2010, dated 2014).

For one assay, the target named is T1, PI3Kalpha (Homo sapiens, UniProt P42336).
T1 construct: His (N); host or cells: SF9 insect cells (baculovirus)
As to the kind of experiment: Human PI3Kα enzyme assay (HTRF). In kind it is biochemical. The conditions noted are these: for inhibition at 1.11 µM: read-out: PI3Kalpha % inh; for PI3Kalpha % inh: at 1.11 μM. The source says:
(§1) The catalytic subunits of PI3Ks are cloned into either pDEST8(p110 alpha) or pDEST10(p110beta, p110delta, and p110gamma) as N-terminal His tagged fusion proteins using the Gateway system (Invitrogen, catalog#11804-010 for pDEST8 and 11806-015 for pDEST10). The sequences are verified before recombinant protein expression using the Baculovirus Expression System with Gateway® Technology. The accession numbers for the subunits are as follows:
(§2) The regulatory subunits of PI3Ks are cloned into pDEST8 as un-tagged protein using the Gateway system (Catalog#11804-010). The sequences are verified before recombinant protein expression using the Baculovirus Expression System with Gateway® Technology. The accession numbers for the subunits are as follows:
(§3) For expression of the p110 complexes, the p85 (MOI of 4) is co-infected with p110 alpha, beta, and delta respectively (1MOI) in SF9 cells and harvested at 60 hours post co-infection. P110 gamma was infected at 1 MOI and harvested at 60 hours post infection.
(§4) For purification, PI3Ks are purified by Ni-NTA Agarose (Qiagen #30250) followed by Mono Q 10/100 GL (Ge Healthcare #17-5167-01). VPS34 is purified by Glutathione Sepharose 4 Fast Flow (GE Healthcare #17-5132-03) followed by HiTrap Q (GE Healthcare #17-1153-01).
1) Human PI3Kα enzyme assay method
(§5) 0.5 uL compounds in DMSO are added to wells of a 384 well microtitre plate (Corning 3575). At room temperature: 10 ul PI3K reaction buffer (50 mM Hepes, 5 mM DTT, 150 mM NaCl, 10 mM beta-glycerophosphate, 10 mM MgCl2, 0.25 mM sodium cholate and 0.001% CHAPS, pH 7.00) containing ATP (25 uM, Promega) is added followed immediately by 10 ul PI3K reaction buffer containing di-C8 PI(4,5)P2 (3.5 uM, CellSignals) and PI3Kalpha (0.4875 nM, Millennium Protein Sciences Group) and the mixture is incubated with shaking at room temperature for 30 minutes. Then 5 ul PI3K stop mix (50 mM Hepes, 5 mM DTT, 150 mM NaCl, 0.01% Tween-20, 15 mM EDTA and 25 nM biotin-PI(3,4,5)P3 (Echelon) is added to quench the reaction followed immediately by addition of 5 ul HTRF detection mix (50 mM Hepes, 5 mM DTT, 150 mM NaCl, 0.01% Tween-20, 40 mM KF, 10 nM GST:GRP-1 PH domain (Millennium Protein Sciences Group), 15 nM Streptavidin-XL (CisBio) and 0.375 nM anti-GST Eu++ antibody (CisBio) at pH 7.00). The plates are then incubated for 1 hour at room temperature with shaking and then read on a BMG PheraStar Plus reader.
On the technique in general: In TR-FRET formats the signal depends on donor and acceptor labels being close together.

The target in a further assay is T2, PI3Kbeta (Homo sapiens, UniProt P42338).
T2 construct: His (N); host or cells: SF9 insect cells (baculovirus)
As to the kind of experiment: Human PI3K beta enzyme assay (HTRF, as for PI3K alpha). In kind it is biochemical. The conditions noted are these: for PI3Kbeta % inh / inhibition at 1.11 µM: at 1.11 μM; for pIC50: read-out: IC50 (inhibit PI3Kbeta); for inhibition at 1.11 µM: read-out: PI3Kbeta % inh.
From the text: as §1, §2, §3, §4, §5
2) Human PI3K beta, delta and gamma isoforms are tested using the procedure described for PI3K alpha above but with the following changes: PI3K beta (5.25 nM), PI3K delta (0.75 nM) and PI3K gamma (5 nM). All isoforms supplied by Millennium Protein Science Group.

pIC50: −log10 of the molar value. Some results are limits rather than exact numbers.

What is called pIC50 is the negative decadic logarithm of the IC50, by convention in mol/L.

T1 sequence (P42336 whole entry): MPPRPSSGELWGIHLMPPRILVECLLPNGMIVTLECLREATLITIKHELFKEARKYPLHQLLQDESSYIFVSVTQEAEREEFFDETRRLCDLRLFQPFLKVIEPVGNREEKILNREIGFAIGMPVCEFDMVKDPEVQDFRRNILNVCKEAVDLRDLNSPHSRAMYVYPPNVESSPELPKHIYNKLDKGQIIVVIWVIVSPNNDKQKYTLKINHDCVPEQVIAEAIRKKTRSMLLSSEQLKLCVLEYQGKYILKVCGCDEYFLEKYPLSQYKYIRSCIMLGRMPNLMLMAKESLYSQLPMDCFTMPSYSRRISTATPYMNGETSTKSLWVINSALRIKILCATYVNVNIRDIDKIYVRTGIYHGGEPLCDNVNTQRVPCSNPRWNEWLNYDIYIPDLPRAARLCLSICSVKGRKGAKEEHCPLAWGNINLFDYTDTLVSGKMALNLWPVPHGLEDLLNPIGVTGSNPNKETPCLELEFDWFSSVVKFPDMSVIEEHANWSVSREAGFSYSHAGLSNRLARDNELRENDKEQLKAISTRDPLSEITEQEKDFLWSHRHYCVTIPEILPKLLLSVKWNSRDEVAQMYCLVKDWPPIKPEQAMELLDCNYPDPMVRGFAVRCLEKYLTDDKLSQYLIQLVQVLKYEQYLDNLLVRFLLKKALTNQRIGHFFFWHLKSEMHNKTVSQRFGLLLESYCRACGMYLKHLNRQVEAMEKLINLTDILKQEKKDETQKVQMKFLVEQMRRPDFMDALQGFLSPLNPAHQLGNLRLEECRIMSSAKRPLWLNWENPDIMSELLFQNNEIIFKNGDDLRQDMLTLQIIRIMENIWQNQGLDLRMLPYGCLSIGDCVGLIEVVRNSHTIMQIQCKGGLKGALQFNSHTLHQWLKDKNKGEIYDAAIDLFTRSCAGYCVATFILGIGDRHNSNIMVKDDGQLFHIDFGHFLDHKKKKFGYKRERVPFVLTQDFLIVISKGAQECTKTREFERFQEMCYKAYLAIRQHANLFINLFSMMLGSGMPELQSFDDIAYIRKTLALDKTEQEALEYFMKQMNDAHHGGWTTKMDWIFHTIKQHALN
T1 sequence (P27986 whole entry partner): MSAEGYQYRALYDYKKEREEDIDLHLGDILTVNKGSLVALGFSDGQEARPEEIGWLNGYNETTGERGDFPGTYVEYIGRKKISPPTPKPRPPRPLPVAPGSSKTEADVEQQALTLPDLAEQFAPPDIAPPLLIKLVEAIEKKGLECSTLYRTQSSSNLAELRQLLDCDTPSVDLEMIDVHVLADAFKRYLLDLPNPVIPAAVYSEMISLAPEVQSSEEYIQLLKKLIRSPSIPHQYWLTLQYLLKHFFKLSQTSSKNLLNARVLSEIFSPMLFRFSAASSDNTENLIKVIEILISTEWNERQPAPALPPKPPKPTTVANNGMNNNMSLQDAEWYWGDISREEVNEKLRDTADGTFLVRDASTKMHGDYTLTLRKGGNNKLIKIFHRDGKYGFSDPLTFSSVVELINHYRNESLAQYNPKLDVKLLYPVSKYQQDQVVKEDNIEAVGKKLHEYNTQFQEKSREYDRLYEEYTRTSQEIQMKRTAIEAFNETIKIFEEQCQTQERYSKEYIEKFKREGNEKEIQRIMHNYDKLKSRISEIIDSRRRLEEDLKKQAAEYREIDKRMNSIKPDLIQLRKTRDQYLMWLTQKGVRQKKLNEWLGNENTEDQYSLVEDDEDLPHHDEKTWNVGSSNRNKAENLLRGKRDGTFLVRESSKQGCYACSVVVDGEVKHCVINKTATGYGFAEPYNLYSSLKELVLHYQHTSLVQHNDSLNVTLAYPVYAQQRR
T2 sequence (P42338 whole entry): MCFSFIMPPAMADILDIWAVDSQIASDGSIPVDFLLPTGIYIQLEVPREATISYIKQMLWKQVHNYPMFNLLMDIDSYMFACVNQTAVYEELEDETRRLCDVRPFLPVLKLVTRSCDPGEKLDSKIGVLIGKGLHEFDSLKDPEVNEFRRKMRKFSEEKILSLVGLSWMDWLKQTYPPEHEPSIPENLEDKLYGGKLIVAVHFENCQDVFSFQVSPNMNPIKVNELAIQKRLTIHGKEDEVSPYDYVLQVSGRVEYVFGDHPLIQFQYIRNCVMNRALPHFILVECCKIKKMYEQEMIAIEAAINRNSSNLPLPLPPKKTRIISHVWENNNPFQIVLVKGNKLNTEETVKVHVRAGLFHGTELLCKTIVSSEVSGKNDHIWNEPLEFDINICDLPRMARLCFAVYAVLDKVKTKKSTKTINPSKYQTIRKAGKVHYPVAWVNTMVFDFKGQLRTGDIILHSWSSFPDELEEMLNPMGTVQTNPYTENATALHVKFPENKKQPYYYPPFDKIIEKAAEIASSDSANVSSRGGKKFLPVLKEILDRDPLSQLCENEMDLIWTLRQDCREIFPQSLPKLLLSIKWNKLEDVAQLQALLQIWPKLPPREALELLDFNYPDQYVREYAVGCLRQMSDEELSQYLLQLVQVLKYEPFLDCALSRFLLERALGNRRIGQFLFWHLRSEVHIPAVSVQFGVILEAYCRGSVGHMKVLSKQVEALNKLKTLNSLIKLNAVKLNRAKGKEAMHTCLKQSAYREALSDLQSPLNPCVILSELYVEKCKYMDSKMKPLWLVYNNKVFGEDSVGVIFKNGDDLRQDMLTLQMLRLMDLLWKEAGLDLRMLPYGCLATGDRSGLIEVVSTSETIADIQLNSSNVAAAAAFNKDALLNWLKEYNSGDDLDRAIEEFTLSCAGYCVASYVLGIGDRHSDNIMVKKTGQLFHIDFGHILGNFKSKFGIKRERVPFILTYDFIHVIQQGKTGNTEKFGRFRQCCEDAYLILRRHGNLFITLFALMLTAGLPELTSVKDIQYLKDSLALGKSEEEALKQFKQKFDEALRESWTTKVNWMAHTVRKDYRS
T2 sequence (P27986 whole entry partner): as the sequence (P27986 whole entry partner) above

In the case of `O=C1NCC(c2ccc(Cl)cc2)c2cc(N3CCOCC3)sc21` (stereo not shown) [Compound 211], at PI3Kalpha, the inhibition at 1.11 µM stood at 20.5%. For the same molecule, the PI3Kbeta % inh on PI3Kbeta was 62.33%.

For the molecule `O=C1CCC(c2ccc(Cl)cc2)c2cc(-c3ccncc3)sc21` (single isomer, unassigned) [Compound 4, 4-(4-chlorophenyl)-2-pyridin-4-yl-5,6-dihydro-1-benzothiophen-7(4H)-one], the PI3Kalpha % inh at PI3Kalpha was −0.100%. For the same molecule, on PI3Kbeta, the PI3Kbeta % inh was determined as 14.400% and the pIC50 was less than 6.00.

In the case of `O=C1NCCC(c2ccc(Cl)cc2)c2cc(N3CCOCC3)sc21` (stereo not shown) [Compound 201, 4-(4-chlorophenyl)-2-(morpholin-4-yl)-4,5,6,7-tetrahydro-8H-thieno[2,3-c]azepin-8-one], the inhibition at 1.11 µM at PI3Kalpha came to 16.7%. Besides, the PI3Kbeta % inh at PI3Kbeta amounted to 79.38%.

As for `COC(=O)C1C(=O)c2sc(N3CCOCC3)cc2C1c1ccc(Cl)c(Cl)c1` (stereo not shown) [Compound 139, methyl 4-(3,4-dichlorophenyl)-2-(morpholin-4-yl)-6-oxo-5,6-dihydro-4H-cyclopenta[b]thiophene-5-carboxylate], the inhibition at 1.11 µM at PI3Kalpha stood at 14.4%; at PI3Kbeta, 95.6%.

As to `Cc1cc(C2CNC(=O)c3sc(N4CCOCC4)cc32)ccc1Cl` (stereo not shown) [Compound 194], the inhibition at 1.11 µM amounted to 38.6% on PI3Kalpha and 113% on PI3Kbeta.

Turning to `CNC(=O)[C@@H]1NC(=O)c2sc(-c3ccncc3)cc2[C@H]1c1ccc(Cl)cc1` [Compound 160], on PI3Kalpha, the PI3Kalpha % inh was 11.18%. Further, the PI3Kbeta % inh at PI3Kbeta was 76.80%.

On to `O=C1N[C@@H](C(=O)NCCCO)[C@H](c2ccc(Cl)cc2)c2cc(N3CCOCC3)sc21` [Compound 200], for which, on PI3Kalpha, the PI3Kalpha % inh is reported as 48.20%. The PI3Kbeta % inh at PI3Kbeta is 53.94%.

Consider `O=C1N[C@@H](C(=O)NCCO)[C@H](c2ccc(Cl)cc2)c2cc(N3CCOCC3)sc21` [Compound 204], for which the PI3Kalpha % inh on PI3Kalpha was 51.34%. The molecule further had a PI3Kbeta % inh on PI3Kbeta of 60.14%.

Take `CNC(=O)[C@@H]1NC(=O)c2sc(N3CCOCC3)cc2[C@H]1c1ccc(Cl)c(Cl)c1` [Compound 132]: the inhibition at 1.11 µM was 54% at PI3Kalpha and 115% at PI3Kbeta.

As to `COC(=O)[C@@H]1NC(=O)c2sc(N3CCOCC3)cc2[C@H]1c1ccc(Cl)c(Cl)c1` (relative stereo) [Compound 127, methyl rel-(4R,5R)-4-(3,4-dichlorophenyl)-2-(morpholin-4-yl)-7-oxo-4,5,6,7-tetrahydrothieno[2,3-c]pyridine-5-carboxylate], the inhibition at 1.11 µM came out at 31.4% on PI3Kalpha and 75.8% on PI3Kbeta.

Take `CNC(=O)c1[nH]c(=O)c2sc(N3CCOCC3)cc2c1-c1ccc(Cl)cc1` [Compound 168]: the inhibition at 1.11 µM on PI3Kalpha stood at 74.5%; on PI3Kbeta, 117%.

With `Cc1cc(-c2nc3c(s2)C(=O)NCC3c2ccc3ccccc3c2)ccn1` (stereo not shown) [Compound 179], the inhibition at 1.11 µM stood at 21.6% on PI3Kalpha and 107% at PI3Kbeta.

For `CNC(=O)[C@@H]1NC(=O)c2sc(-c3ccncc3)cc2[C@H]1c1ccc(Cl)cc1` [Compound 206], the inhibition at 1.11 µM on PI3Kalpha is 41.8%; at PI3Kbeta it was 58.5%.

As for `CNC(=O)[C@@H]1NC(=O)c2sc(N3CCOCC3)cc2[C@H]1c1ccc(Cl)cc1` [Compound 212], the PI3Kalpha % inh on PI3Kalpha is reported as 54.25%. The molecule also came in with a PI3Kbeta % inh at PI3Kbeta of 65.59%.

Turning to `O=C1NCCC(c2ccc3ccncc3c2)c2nc(N3CCOCC3)sc21` (stereo not shown) [Compound 165], the inhibition at 1.11 µM was 13.3% on PI3Kalpha and 109% at PI3Kbeta.

For `COCCNC(=O)[C@@H]1NC(=O)c2sc(N3CCOCC3)cc2[C@H]1c1ccc(Cl)cc1` [Compound 177], the values for the inhibition at 1.11 µM at PI3Kalpha and at PI3Kbeta were 29.6% and 58.5%, respectively.

For `C=CCC1(C(=O)O)NC(=O)c2sc(N3CCOCC3)cc2C1c1ccc(Cl)c(Cl)c1` (stereo not shown) [Compound 196, 5-allyl-4-(3,4-dichlorophenyl)-2-(morpholin-4-yl)-7-oxo-4,5,6,7-tetrahydrothieno[2,3-c]pyridine-5-carboxylic acid], the inhibition at 1.11 µM on PI3Kalpha amounted to 13.7%; at PI3Kbeta, 84.3%.

For the molecule `COC(=O)c1cc(C2CCNC(=O)c3sc(N4CCOCC4)nc32)ccc1Cl` (stereo not shown) [Compound 174, methyl 2-chloro-5-[2-(morpholin-4-yl)-4-oxo-5,6,7,8-tetrahydro-4H-[1,3]thiazolo[5,4-c]azepin-8-yl]benzoate], the inhibition at 1.11 µM at PI3Kalpha stood at 4.56%; at PI3Kbeta, 82.5%.

`CC(=O)Nc1cc(-c2cc3c(s2)C(=O)CC3c2ccc(Cl)cc2)ccn1` (stereo not shown) [Compound 16, N-(4-(4-(4-chlorophenyl)-6-oxo-5,6-dihydro-4H-cyclopenta[b]thiophen-2-yl)pyridin-2-yl)acetamide]: the inhibition at 1.11 µM at PI3Kalpha came out at 24.5%. At PI3Kbeta, the inhibition at 1.11 µM came to 54.5% and the pIC50 was 6.00 to 7.00.

Consider `O=C1NCC(c2ccc(Cl)cc2)c2c1sc(N1CCOCC1)c2CO` (single isomer, unassigned) [Compound 178, 4-(4-chlorophenyl)-3-(hydroxymethyl)-2-(morpholin-4-yl)-5,6-dihydrothieno[2,3-c]pyridin-7(4H)-one], for which the inhibition at 1.11 µM came to 4.71% on PI3Kalpha and 40.2% on PI3Kbeta.

Take `O=C1NCC(c2ccc(Cl)c(Cl)c2)c2cc(N3CCOCC3)sc21` (stereo not shown) [Compound 208]: the inhibition at 1.11 µM on PI3Kalpha worked out at 18.4%; at PI3Kbeta, 96.8%.

As for `O=C1NCC(c2ccc(Cl)cc2)c2c1sc(N1CCOCC1)c2C#Cc1ccccc1` (single isomer, unassigned) [Compound 137, 4-(4-chlorophenyl)-2-(morpholin-4-yl)-3-(phenylethynyl)-5,6-dihydrothieno[2,3-c]pyridin-7(4H)-one], the inhibition at 1.11 µM came to 16.1% on PI3Kalpha and 80.8% at PI3Kbeta.

Regarding `O=C1NCC(c2ccc(Cl)cc2)c2c1sc(N1CCOCC1)c2C#Cc1cccnc1` (stereo not shown) [Compound 122], the inhibition at 1.11 µM at PI3Kalpha was 97.8%; on PI3Kbeta, 128%.

Regarding `O=C1NCC(c2ccc3ccncc3c2)c2nc(N3CCOCC3)sc21` (stereo not shown) [Compound 189], the inhibition at 1.11 µM at PI3Kalpha is 25.9%; at PI3Kbeta, 116%.

With `N#Cc1c(N2CCOCC2)sc2c1C(c1ccc(Cl)c(Cl)c1)CCNC2=O` (stereo not shown) [Compound 116], the PI3Kalpha % inh at PI3Kalpha is 36.43%. Further, at PI3Kbeta, the PI3Kbeta % inh came out at 66.61%.

`N#Cc1c(N2CCOCC2)sc2c1C(c1ccc(Cl)c(Cl)c1)CNC2=O` (stereo not shown) [Compound 159]: the inhibition at 1.11 µM at PI3Kalpha came out at 67.2%; on PI3Kbeta it was 118%.

With `N#Cc1c(N2CCOCC2)sc2c1C(c1ccc(Cl)c(Cl)c1)CCNC2=O` (stereo not shown) [Compound 199], on PI3Kalpha, the PI3Kalpha % inh is 65.98%. Besides, the PI3Kbeta % inh on PI3Kbeta was 115.55%.

`O=C(O)CN1CC(c2ccc(Cl)cc2)c2cc(N3CCOCC3)sc2C1=O` (stereo not shown) [Compound 213, 2-(4-(4-chlorophenyl)-2-morpholino-7-oxo-4,5-dihydrothieno[2,3-c]pyridin-6(7H)-yl)acetic acid]: the inhibition at 1.11 µM was 5.63% on PI3Kalpha and 99.3% on PI3Kbeta.

Turning to `O=C1N[C@@H](CO)CC(c2ccc3ccccc3c2)c2nc(N3CCOCC3)sc21` (stereo partly shown) [Compound 202], on PI3Kalpha, the PI3Kalpha % inh worked out at 88.75%. Moreover, on PI3Kbeta, the PI3Kbeta % inh is reported as 113.55%.

In the case of `CCNC(=O)[C@@H]1NC(=O)c2sc(N3CCOCC3)cc2[C@H]1c1ccc(Cl)cc1` [Compound 203], the PI3Kalpha % inh on PI3Kalpha came out at 40.46%. At PI3Kbeta, this molecule yielded a PI3Kbeta % inh of 66.37%.

Take `CNC(=O)[C@@H]1NC(=O)c2sc(C3=CCOCC3)cc2[C@H]1c1ccc(Cl)cc1` [Compound 121]: on PI3Kalpha, the PI3Kalpha % inh was found to be 40.77%. Also, the PI3Kbeta % inh on PI3Kbeta was 104.98%.

Regarding `CC1(C)CC(=O)c2sc(-c3ccncc3)cc2C1(O)c1ccc(Cl)cc1` (stereo not shown) [Compound 5, 4-(4-chlorophenyl)-4-hydroxy-5,5-dimethyl-2-pyridin-4-yl-5,6-dihydro-1-benzothiophen-7(4H)-one], the inhibition at 1.11 µM at PI3Kalpha was -3.8%. Also, on PI3Kbeta, the inhibition at 1.11 µM is 32.8% and the pIC50 is less than 6.00.
